These results are taken from patent EP4111863A1, “PHOSPHORUS USE EFFICIENCY ENHANCERS AS PLANT GROWTH PROMOTORS” (EuroChem Antwerpen, priority 2021, dated 2023).

The subject of the assay is SPX1. As to the kind of experiment: Chemical activity assessment: SPX1 phosphate starvation biomarker, pSPX1::GUS reporter line, GUS stained area. In kind it is in vivo, Arabidopsis thaliana. The note with it: Table 3; 50 µM compound, low phosphate modMS liquid medium, 7 days after germination; low phosphate control average of the same plate. As to the method: All Arabidopsis plant experiments were performed using the Arabidopsis thaliana Columbia-0 background. The Arabidopsis pSPX1::GUS line is described in the […] 2008, 54: 965-975. For rice, the cultivar Nipponbare was used. For maize, the cultivars DKC 2931 and B104 were used for regular pot experiments and sand-based pot experiments, respectively. For soybean, the cultivar Primus was used. […] The medium was solidified due to the addition of 0,6% Gelrite, unless stated otherwise. In case of vertical plates (root length and root hair measurements), the medium was supplied with 0.5% of sucrose and 1 µM (low phosphate, 1 µM KH2PO4, 9.9 mM KCI), 10 µM (low phosphate 10 µM KH2PO4, 9.9 mM KCI) or 1.25 mM KH2PO4 (high phosphate). Arabidopsis seeds were stratified for 2 days at 4 °C before germination. Seedlings were germinated in climate-controlled growth chambers at 22 °C under continuous light (100 µmol m^-2 s^-1). Husked rice seeds were germinated on wetted Whatman paper for 2 days at 37 °C and then transferred to Sterivent boxes or square Petri dishes with solid medium. Maize and soybean seeds were wetted 24 hours at room temperature prior to sowing in pots.
For the chemical activity assessment 3 to 8 seeds per well of Arabidopsis pSPX1::GUS line were sown in 96-well plates containing 150 µl of low phosphate modMS liquid medium containing 1% of sucrose. Compounds were added in 50 µM concentration, starting from a 5 mM stock of compounds solved in DMSO. Different chemical substances were separately added to different wells. Per plate, 16 control wells were used, 8 containing only the low phosphate medium and 1% DMSO, and 8 containing high phosphate medium and 1% DMSO. 7 days after germination, plates were scanned using a flatbed scanner (EPSON Expression 11000XL) and analyzed for leaf size. After scanning, the growth medium was replaced by GUS staining solution (see Plant Mol. Biol. Rep. 1994, 12: 37-42 for details) and incubated for 1.5 hours at 37 °C. The plates were scanned a second time and analyzed for GUS signal area. Measurements of both leaf area and GUS signal area were conducted by filtering out and measure the green and blue signal, respectively using ImageJ software. If the green leaf area was 50% or less than the control, samples were omitted. Additionally, all results were visually screened for leaf size and GUS signal.
As for `Cc1csc(C2CN(Cc3nc(-c4ccccc4)no3)CCO2)n1` (stereo not drawn), the “GUS (SPX1) stained area normalized to the number of seeds (pixels)” value (“GUS (SPX1) stained area normalized” below) was determined as 0 pixels.
The result for `Cc1ccc(C(CN2CCOCC2)NC(=O)c2cc(-c3ccccc3)[nH]n2)cc1` (stereo not drawn) reads 0 pixels; that for `CC1CN(CC(=O)Nc2ccccc2Cc2ccccc2)CC(C)O1` (stereo not drawn), 0 pixels.
For the compound `CS(=O)(=O)CC1(CN2CCOC(c3ccc(F)cc3)C2)CC1` (stereo not drawn), the “GUS (SPX1) stained area normalized” value is 0 pixels.
In the case of `O=C(O)c1cc(Cl)nc(N2CCOCC2)c1` it was 0 pixels; in that of `CCn1c(Sc2nnnn2-c2ccccc2)nc2cc(S(=O)(=O)N3CCOCC3)ccc21`, 14 pixels.
In the case of `CC1CN(C(=O)c2cc(Cl)c(Cl)n2C)CCO1` (stereo not drawn) it was 14 pixels; in that of `CC(C)C(NC(=O)C12CC3CC(CC(C3)C1)C2)C(=O)N1CCOCC1` (stereo not drawn), 14 pixels.
The result for `O=C(c1cc(-c2ccccc2)nc2c1cnn2Cc1cccc(F)c1)N1CCOCC1` reads 14 pixels; that for `Cc1ccc(C2CN(Cc3cc(-c4ccco4)on3)CCO2)c(C)c1` (stereo not drawn), 15 pixels.
Regarding `Cn1cc(C2CN(Cc3ccc(CSC(F)F)o3)CCO2)cn1` (stereo not drawn), the “GUS (SPX1) stained area normalized” value amounted to 15 pixels.
The result for `Cc1cc(C)n(CC2CN(CC(=O)N(C)c3nccs3)CCO2)n1` (stereo not drawn) reads 15 pixels; that for `O=C(CSc1ncnc2sccc12)c1ccc(CC(=O)N2CCOCC2)s1`, 15 pixels.
Turning to `O=C(Cn1c(NCCO)nc2ccccc21)N1CCOCC1`, the “GUS (SPX1) stained area normalized” value amounted to 16 pixels.
Regarding `CCc1nnc(NC(=O)N2CCOCC2CC(C)C)s1` (stereo not drawn), the “GUS (SPX1) stained area normalized” value is given as 16 pixels.
In the case of `O=C(c1ccc(-c2cc(Cl)ccc2Cl)o1)N1CCOCC1`, the “GUS (SPX1) stained area normalized” value amounted to 16 pixels.
In the case of `CC1(C)CN(Cc2ccc(-n3ccnc3)cc2)CCO1` it was 16 pixels; in that of `CC1COCCN1C(=O)CCc1nc(-c2cccs2)no1` (stereo not drawn), 17 pixels.
The result for `Cn1c(Cl)cnc1CN1CCOC(c2ccc(Cl)cc2)C1` (stereo not drawn) reads 17 pixels; that for `Cc1cc(C)c(C)c(OC(=O)N2CCOCC2)c1`, 17 pixels; that for `NC(=O)C1CN(c2ncc(Br)cn2)CCO1` (stereo not drawn), 17 pixels.
The result for `Cc1cc(I)ccc1NC(=O)CN1CCOC(C)C1` (stereo not drawn) reads 17 pixels; that for `CC(=O)Nc1ccc(Sc2cc(C(=O)N3CCOCC3)c3ccccc3n2)cc1`, 18 pixels; that for `O=S(=O)(N1CCOCC1)N1CCN(Cc2noc(-c3ccc(F)cc3)n2)CC1`, 19 pixels.
On to `Cc1cccn2c(=O)cc(CN3CCOC(c4ccc(F)cc4)C3)nc12` (stereo not drawn), for which the “GUS (SPX1) stained area normalized” value was 19 pixels.
In the case of `CC1CN(C(=O)c2cnn(C)c2C(F)(F)F)CC(C)O1` (stereo not drawn) it was 19 pixels; in that of `COc1cccc(-c2nnn(-c3nc(CN4CCOCC4)nc4sc5c(c34)CCCC5)n2)c1`, 20 pixels.
Turning to `CCCCn1c(N)c(C(=O)NCCN2CCOCC2)c2nc3ccccc3nc21`, the “GUS (SPX1) stained area normalized” value is reported as 20 pixels.
With `O=C(COc1ccc(Cl)cc1)Nc1ccccc1C(=O)N1CCOCC1`, the “GUS (SPX1) stained area normalized” value is recorded as 20 pixels.
The result for `CC(=O)Nc1nc(CN2CC(C)OC(c3ccsc3)C2)cs1` (stereo not drawn) reads 20 pixels; that for `Cc1nnc(NC(=O)N2CC(C)OC(c3ccsc3)C2)s1` (stereo not drawn), 20 pixels; that for `Cc1ccc2cccc(OC(=O)N3CCOCC3)c2n1`, 21 pixels.
As to `Brc1cc(CN2CCOC(Cn3cccn3)C2)cs1` (stereo not drawn), the “GUS (SPX1) stained area normalized” value worked out at 21 pixels.
Take `CC(C)c1nc(C2COCCN2c2ccnc(-c3ccccc3)n2)no1` (stereo not drawn): the “GUS (SPX1) stained area normalized” value came to 21 pixels.
As for `CC1CN(CC(=O)Nc2ccccc2C(=O)NC2CCCC2)CC(C)O1` (stereo not drawn), the “GUS (SPX1) stained area normalized” value amounted to 21 pixels.
For the compound `CCC1COCCN1C(=O)Nc1nnc(C(F)(F)F)s1` (stereo not drawn), the “GUS (SPX1) stained area normalized” value worked out at 21 pixels.
As to `O=C(Cc1c[nH]c2cc(Cl)ccc12)N1CCOCC1c1ncon1` (stereo not drawn), the “GUS (SPX1) stained area normalized” value is listed as 22 pixels.
As to `Fc1ccc(-c2nnc(SCc3ccc4ccccc4n3)n2CCN2CCOCC2)cc1`, the “GUS (SPX1) stained area normalized” value is reported as 22 pixels.
The result for `CC1CN(C(=O)Nc2cc(C(C)C)on2)CC(c2ccsc2)O1` (stereo not drawn) reads 23 pixels; that for `CCC1CN(C(=O)CCc2nc(-c3cccs3)no2)CCO1` (stereo not drawn), 23 pixels.
In the case of `c1ccc(OCCNCCN2CCOCC2)cc1` it was 23 pixels; in that of `O=C(Nc1ccc(F)cn1)N1CCOC(c2nccs2)C1` (stereo not drawn), 24 pixels; in that of `COC(=O)c1ccc(N2CCOC(c3ccc(C)o3)C2)nc1C` (stereo not drawn), 24 pixels.
As to `Cc1cccc(N2CCOC3(CCCC3)C2)n1`, the “GUS (SPX1) stained area normalized” value came to 25 pixels.
In the case of `CC(Nc1cnn(CCN2CCOCC2)c1)c1nccs1` (stereo not drawn) it was 25 pixels.
The result for `Cc1ccc(C2COCCN2C(=O)Nc2nnc(C(F)F)s2)o1` (stereo not drawn) reads 26 pixels; that for `Cc1nc2c(cc(Oc3ccc(S(=O)(=O)N4CCOCC4)cn3)c3ccsc32)s1`, 26 pixels.
The result for `Cc1cccc(-n2c(SCC3COc4ccccc4O3)nnc2N2CCOCC2)c1` (stereo not drawn) reads 26 pixels; that for `Fc1cc(C2CNCCO2)c(Cl)cc1Cl` (stereo not drawn), 27 pixels.
For the compound `Cc1nc2c(c(C)nn2C)c(C)c1CCC(=O)N1CC(C)OC(C)C1` (stereo not drawn), the “GUS (SPX1) stained area normalized” value was found to be 27 pixels.
`CCc1ccnc(C(=O)Nc2cnccc2N2CCOCC2)c1`: the “GUS (SPX1) stained area normalized” value stood at 27 pixels.
The result for `O=C(NC1CCSc2ccc(Cl)cc21)c1ccc(N2CCOCC2)c([N+](=O)[O-])c1` (stereo not drawn) reads 27 pixels.
On to `CC1(C)C(NC(=O)Nc2cc(Cl)ccc2N2CCOCC2)C2CCOC21` (stereo not drawn), for which the “GUS (SPX1) stained area normalized” value turned out to be 28 pixels.
Regarding `O=C(CCc1ccccc1)Nc1c(C(=O)N2CCOCC2)oc2ccccc12`, the “GUS (SPX1) stained area normalized” value was determined as 28 pixels.
In the case of `O=C1c2cccc3cccc(c23)C(=O)N1CCN1CCOCC1` it was 29 pixels.
The result for `O=C(C1CN(C(=O)C(c2ccccc2)c2ccccc2)c2ccccc2O1)N1CCOCC1` (stereo not drawn) reads 30 pixels.
In the case of `O=S(=O)(c1ccc(Sc2nnc(-c3ccccc3)c3ccccc23)nc1)N1CCOCC1` it was 31 pixels.
